In the assay the test system is mice subjected to controlled cortical impact injury. In words: Brain water content (brain edema) after CCI. In kind it is in vivo. Particulars: day 1, vehicle 84.5±1.2%. As for the experimental part: All animal procedures were approved by the Animal Research Committee at Cheng Hsin General Hospital (Animal permit number […] 101-08), and all procedures complied with the Guide for the Care and Use of Laboratory Animals published by the US National Institutes of Health (NIH Publication No. 85-23, revised 1996). Animals were housed under a 12-h light/dark cycle and at constant temperature (21-25°C) and humidity (45-50%). They were allowed free access to pellet chow and water. TBI in mice was induced by a CCI injury model as previously described. Briefly, 8-week-old male C57BL/6 mice (weighing 22-25 g) were anesthetized through the use of intraperitoneal injection of sodium pentobarbital (65 mg/kg; Rhone Merieux, Harlow, UK) and placed in a stereotaxic frame. A 5 mm craniotomy was performed over the right parietal cortex, centered on the coronal suture and 0.1 mm lateral to the sagittal suture, and injury to dura was avoided. […] Body temperature was monitored throughout the surgery by a rectal probe; temperature was maintained at 37.0±0.5°C using a heated pad. […] To determine the optimal dose of salidroside, a pilot study was performed using 2 different doses (20 and 50 mg/kg) administered 10 min after injury, and neurological deficits and tissue damage were evaluated as the main outcomes. […]

Structures are written as SMILES.

`OC[C@H]1O[C@@H](OCCc2ccc(O)cc2)[C@H](O)[C@@H](O)[C@@H]1O` [SALD, salidroside]: the “brain water content, ipsilateral hemisphere” value was determined as 81.0±0.6% (20 mg/kg ip 10 min after CCI, sham 80.7±0.6%, P<0.05) and 82.2±1.1% (50 mg/kg ip 10 min after CCI, not significant).

The values are drawn from paper PMC3454376, “Salidroside Improves Behavioral and Histological Outcomes and Reduces Apoptosis via PI3K/Akt Signaling after Experimental Traumatic Brain Injury” (PLoS ONE, 2012).
